Measured values: PMC3689833, “Neurochemical Changes in the Mouse Hippocampus Underlying the Antidepressant Effect of Genetic Deletion of P2X7 Receptors” (PLoS ONE, 2013)

What was measured:
[1] = tested on: BDNF level in hippocampal slices; assay: BDNF protein assay (ELISA), in vitro study in hippocampal slices; assay type: cell-based, mouse; details: BBG 100 nM
Method: The P2rx7 wild type and knockout mice were anesthetized under light CO2 inhalation and decapitated. The hippocampus was dissected in ice-cold Krebs solution saturated with 95% O2 and 5% CO2, sectioned (400 µm thick slices) using a McIlwain tissue chopper and incubated in 2 ml of modified Krebs solution in the presence of 1 ml Hibernate medium, ascorbic acid (300 µM) and Na2EDTA (30 µM) for 60 min. The medium was bubbled continuously with 95% O2 and 5% CO2 and maintained at 37°C. The P2rx7 agonist, BzATP, was added to the incubation solution for 30 min, whereas BBG was applied 15 min before BzATP application. RO-256981, 6-cyano-7-nitroquinoxaline-2,3-dione (CNQX) and 3-Chloro-4-fluoro-N-[4[[2(phenylcarbonyl)hydrazino]carbonyl]benzyl] benzenesulfonamide (TCN-201) were applied for 15 min, while MCPG was administered for 30 min. The group I metabotropic glutamate receptor agonist, dihydroxyphenylglycine (DHPG), was administered for 10 min. The DHPG, MCPG, and RO-256981 dosages were chosen based on previous studies, [47], [48]. In the experiments with BzATP, Mg^2+ was omitted from the incubation solution. The hippocampal slices were collected, frozen on dry ice and stored at −70°C until further investigation. Each experimental group contained 3–4 mice.
At the time of analysis, the samples were removed from the freezer and weighed. The BDNF extraction procedure was performed in accordance with the methods of a previous study. For the BDNF assays, 2 ml lysis buffer (100 mM PIPES, pH 7, 500 mM NaCl, 0.2% Triton X-100, 0.1% NaN3, 2% BSA, 2 mM EDTA, 200 µM PMSF, 10 µg/mL aprotinin, 1 µg/mL leupeptin, and 0.5 mM sodium vanadate) was added to each sample, and the hippocampus was sonicated at power level 2 using pulses at 1 sec intervals for 10–15 sec. Subsequently, the samples were centrifuged at 16,000 × g for 30 min at 4°C. 100 µl aliquots of the resulting supernatants were removed and diluted with 400 µl of DPBS buffer (137 mM NaCl, 2.68 mM KCl, 1.47 mM KH2PO4, 8.1 mM Na2HPO4 (pH 7.35), 0.9 mM CaCl2·H2O, and 0.5 mM MgCl2·H2O). The supernatants were collected and stored at −70?C until further analysis. For the total free BDNF measurement, the samples were acid treated with 1 µl of 1 N HCl for each 50 µl of diluted samples to decrease the pH to 2.5, followed by incubation at room temperature for 15 min. The samples were neutralized with 1 µl of 1 N NaOH for each 50 µl of diluted samples. The levels of BDNF (both precursor and mature forms) expression were evaluated using an enzyme-linked immunosorbent assay (ELISA) kit and a BDNF Emax ImmunoAssay System (Promega Corporation, Madison, WI, USA), which is specific for mouse BDNF protein, according to the manufacturer’s instructions. The BDNF levels were calculated by plotting the optical density (OD) of each sample against the standard curve. A seven-point standard curve using two-fold serial dilutions in Reagent Diluent (according the manufacturer’s instructions) and a high standard of 500 pg/ml were used for the determination of BDNF levels. The assay detection limits were <15 pg/ml. Absorbance was measured at 450 nm using a Perkin-Elmer Victor 3V 1420 Multilabel Counter.

[2] = tested on: P2rx7+/+ and P2rx7−/− mice; assay: Sucrose preference test (SPT), LPS-induced anhedonia; assay type: in vivo, mouse; details: P2rx7+/+ mice, subacute 4-day 50 mg/kg i.p., LPS 0.2 mg/kg i.p.
Method: The experiments were performed using the two-bottle sucrose preference paradigm. The decreased preference for sucrose vs. water in this test has been proposed to reflect impaired sensitivity towards reward and to model anhedonia. Mice were offered a choice of 2% sucrose solution or water during 12-hour nocturnal periods (starting at 19∶00). The bottles were weighed before and after each test session to monitor sucrose and water consumption. The relative position of the sucrose and water bottles were swapped every night to avoid place preferences. The baseline sucrose intake was measured under a habituation period of 3–4 days before administering the treatments, and the mean volume ingested over the last 3 training sessions was used as a baseline value. The sucrose consumption was measured for 4 consecutive nights after LPS (0.2 mg/kg i.p.) or saline administration and expressed as g/100 g body weight or as a percentage of the baseline (%).

[3] = tested on: P2rx7+/+ mice; assay: Automated tail suspension test (TST), LPS-induced depressive behavior; assay type: in vivo, mouse; details: LPS 1 mg/kg i.p. 24 h before, antagonist 50 mg/kg i.p. 30 min before test
Method: All experiments and treatments were performed during the light phase (7.00 AM–7.00 PM). The TST was conducted using an automated tail suspension device (BIO-TST2, Bioseb, France) in accordance with a previously described method. The device consisted of a single tail suspension module with three chambers, connected to a personal computer that recorded the activity of the animals during the test sessions. Three mice were individually suspended by the tail onto the hooks of the device using adhesive tape (distance from tip of tail was 1–2 cm). The measurements were automatically recorded within 5–10 seconds after placing the last animal into the chamber, and each measurement lasted 6 min. […] The threshold level was set at 6. To examine endotoxin-induced depressive behavior, the animals were subjected to bacterial lipopolysaccharide injection (LPS, serotype 055:B5, Sigma, St. Louis, […], USA, 1 mg/kg i.p.) at 24 h before a single 6-min test period. Brilliant blue G (BBG, 50 mg/kg i.p.) or an equal volume of saline was injected at 30 min before the test period. The time of immobility was expressed in sec. The P2rx7+/+ and P2rx7−/− mice were subjected to alternation testing. […] The data of these animals were excluded from the calculations during the post hoc analysis.

Compound: CCOc1ccc(Nc2ccc(/C(=C3C=C/C(=[N+](/CC)Cc4cccc(S(=O)(=O)[O-])c4)C=C/3C)c3ccc(N(CC)Cc4cccc(S(=O)(=O)O)c4)cc3C)cc2)cc1 [BBG, Brilliant blue G]
- BDNF level in hippocampal slices in the presence of BzATP ([1]; P2rx7+/+ slices, + BzATP 100 µM, Mg2+-free, RO-256981 3 µM, MCPG 200 µM, DHPG 100 µM): 77.87 ± 4.24 pg/mL
- BDNF level in hippocampal slices ([1]; P2rx7+/+ slices): 118.22 ± 1.59 pg/mL
- increase of basal BDNF level ([1]; P2rx7+/+ slices): 656%
- BDNF level in hippocampal slices ([1]; P2rx7−/− slices): 60.31 ± 0.31 pg/mL
- increase of basal BDNF level ([1]; P2rx7−/− slices): 272.7%
- sucrose consumption one day after LPS injection [2]: did not change
- sucrose consumption over subsequent days after LPS [2]: significantly increased
- LPS-induced depressive behavior in TST (immobility) [3]: significantly attenuated
